In patent US11524968B2, “Heterocyclic compound as a protein kinase inhibitor” (HK inno.N Corporation, priority 2017, dated 2022):

Biological target: JAK1 (Homo sapiens (Human), UniProt P23458)
Experiment: Analysis of JAK1 activity inhibition ability (ADP-Glo Kinase Assay)
Format: biochemical
Conditions: JAK1 enzyme, ADP-Glo luminescence, ATP 250 uM, IRS-itide substrate, 30° C. 40 minutes; read-out: IC50
How it was run: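 ADP-Glo luminescence read-out of ADP production, with IC50 taken as the concentration halving JAK1 activity relative to control. Enzyme was incubated 40 min at 30 °C with compound, IRS-itide (40 ng/mL) and ATP (250 uM), concentrations as prepared in pH 7.5 Tris-HCl/MgCl2/BSA/DTT buffer.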

Chain of JAK1 (P23458 whole entry): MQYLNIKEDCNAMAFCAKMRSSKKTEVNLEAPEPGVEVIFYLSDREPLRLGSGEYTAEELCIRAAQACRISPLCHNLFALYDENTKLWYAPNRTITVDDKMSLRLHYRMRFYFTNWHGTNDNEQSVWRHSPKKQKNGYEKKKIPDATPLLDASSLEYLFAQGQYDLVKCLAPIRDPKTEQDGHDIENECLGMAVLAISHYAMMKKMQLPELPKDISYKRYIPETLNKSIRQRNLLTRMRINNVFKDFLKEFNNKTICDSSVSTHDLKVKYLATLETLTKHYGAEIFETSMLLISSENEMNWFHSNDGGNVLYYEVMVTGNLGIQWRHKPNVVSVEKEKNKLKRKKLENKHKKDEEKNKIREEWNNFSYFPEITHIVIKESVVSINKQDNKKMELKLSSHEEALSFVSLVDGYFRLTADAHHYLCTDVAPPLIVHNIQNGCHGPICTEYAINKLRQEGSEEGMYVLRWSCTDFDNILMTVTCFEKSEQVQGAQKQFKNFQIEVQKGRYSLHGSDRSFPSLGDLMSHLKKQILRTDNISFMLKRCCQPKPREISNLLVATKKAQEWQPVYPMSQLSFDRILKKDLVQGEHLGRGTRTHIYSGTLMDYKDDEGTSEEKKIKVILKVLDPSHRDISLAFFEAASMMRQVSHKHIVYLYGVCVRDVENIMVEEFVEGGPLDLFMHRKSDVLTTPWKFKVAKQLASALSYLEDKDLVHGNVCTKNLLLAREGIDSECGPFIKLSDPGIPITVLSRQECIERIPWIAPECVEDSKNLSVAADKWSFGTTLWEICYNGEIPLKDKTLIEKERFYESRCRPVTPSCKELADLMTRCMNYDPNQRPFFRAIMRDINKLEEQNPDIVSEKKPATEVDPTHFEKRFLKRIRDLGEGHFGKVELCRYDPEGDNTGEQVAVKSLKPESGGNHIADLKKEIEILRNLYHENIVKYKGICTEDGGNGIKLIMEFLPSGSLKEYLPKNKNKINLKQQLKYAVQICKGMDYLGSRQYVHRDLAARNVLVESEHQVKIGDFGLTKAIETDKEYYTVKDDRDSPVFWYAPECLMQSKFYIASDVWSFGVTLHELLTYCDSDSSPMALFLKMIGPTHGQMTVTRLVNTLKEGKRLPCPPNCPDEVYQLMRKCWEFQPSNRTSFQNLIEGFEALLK

SMILES | IC50
CCCS(=O)(=O)NCc1ccc(-c2cc(NC(=O)C3CC3)nc3[nH]ccc23)cc1 [Example 583, N-(4-(4-(propylsulfonamidomethyl)phenyl)-1H-pyrrolo[2,3-b]pyridin-6-yl)cyclopropanecarboxamide] | 20 to 200 nM
N#CC1CN(Cc2ccc(-c3cc(NC(=O)C4CC4)nc4[nH]ccc34)cc2)C1 [Example 586, N-(4-(4-((3-cyanoazetidin-1-yl)methyl)phenyl)-1H-pyrrolo[2,3-b]pyridin-6-yl)cyclopropanecarboxamide] | 20 to 200 nM
O=C(Nc1cc(-c2ccc(CCN3CCS(=O)(=O)CC3)cc2)c2cc[nH]c2n1)C1CC1 [Example 591, N-(4-(4-(2-(1,1-dioxidothiomorpholino)ethyl)phenyl)-1H-pyrrolo[2,3-b]pyridin-6-yl)cyclopropanecarboxamide] | 20 to 200 nM
O=C(Nc1nc(-c2ccc(CN3CCS(=O)(=O)CC3)cc2)c2nc[nH]c2n1)C1CC1 [Example 592, N-(6-(4-((1,1-dioxidothiomorpholino)methyl)phenyl)-9H-purin-2-yl)cyclopropanecarboxamide] | > 200 nM
Cc1nnn(Cc2ccc(-c3cc(NC(=O)C4CC4)nc4[nH]cnc34)cc2)n1 [Example 593, N-(7-(4-((5-methyl-2H-tetrazol-2-yl)methyl)phenyl)-3H-imidazo[4,5-b]pyridin-5-yl)cyclopropanecarboxamide] | > 200 nM
Cc1nnnn1Cc1ccc(-c2cc(NC(=O)C3CC3)nc3[nH]cnc23)cc1 [Example 594, N-(7-(4-((5-methyl-1H-tetrazol-1-yl)methyl)phenyl)-3H-imidazo[4,5-b]pyridin-5-yl)cyclopropanecarboxamide] | > 200 nM
O=C(Nc1cc(-c2ccc(CNC3CCS(=O)(=O)C3)cc2)c2cc[nH]c2n1)C1CC1 (stereo not drawn) [Example 595, N-(4-(4-(((1,1-dioxidotetrahydrothiophen-3-yl)amino)methyl)phenyl)-1H-pyrrolo[2,3-b]pyridin-6-yl)cyclopropanecarboxamide] | 20 to 200 nM
O=C(Nc1cc(-c2ccc(CNC3CCS(=O)(=O)CC3)cc2)c2cc[nH]c2n1)C1CC1 [Example 596, N-(4-(4-(((1,1-dioxidotetrahydro-2H-thiopyran-4-yl)amino)methyl)phenyl)-1H-pyrrolo[2,3-b]pyridin-6-yl)cyclopropanecarboxamide] | 20 to 200 nM
O=C(Nc1nc(-c2ccc(CNc3ccc(F)cc3)cc2)c2nc[nH]c2n1)C1CC1 [Example 597, N-(6-(4-(((4-fluorophenyl)amino)methyl)phenyl)-9H-purin-2-yl)cyclopropanecarboxamide] | > 200 nM
O=C(Nc1nc(-c2ccc(CNc3cccc(F)c3)cc2)c2nc[nH]c2n1)C1CC1 [Example 598, N-(6-(4-(((3-fluorophenyl)amino)methyl)phenyl)-9H-purin-2-yl)cyclopropanecarboxamide] | > 200 nM
O=C(Nc1cc(-c2cnn(C3CNC3)c2)c2cc[nH]c2n1)C1CC1 [Example 600, N-(4-(1-(azetidin-3-yl)-1H-pyrazol-4-yl)-1H-pyrrolo[2,3-b]pyridin-6-yl)cyclopropanecarboxamide] | 20 to 200 nM
CCS(=O)(=O)N1CC(n2cc(-c3cc(NC(=O)C4CC4)nc4[nH]ccc34)cn2)C1 [Example 601, N-(4-(1-(1-(ethylsulfonyl)azetidin-3-yl)-1H-pyrazol-4-yl)-1H-pyrrolo[2,3-b]pyridin-6-yl)cyclopropanecarboxamide] | 20 to 200 nM
CCCCS(=O)(=O)N1CC(n2cc(-c3cc(NC(=O)C4CC4)nc4[nH]ccc34)cn2)C1 [Example 602, N-(4-(1-(1-(butylsulfonyl)azetidin-3-yl)-1H-pyrazol-4-yl)-1H-pyrrolo[2,3-b]pyridin-6-yl)cyclopropanecarboxamide] | > 200 nM
CS(=O)(=O)N1CC(n2cc(-c3cc(NC(=O)C4CC4)nc4[nH]ccc34)cn2)C1 [Example 603, N-(4-(1-(1-(methylsulfonyl)azetidin-3-yl)-1H-pyrazol-4-yl)-1H-pyrrolo[2,3-b]pyridin-6-yl)cyclopropanecarboxamide] | 20 to 200 nM
O=C(Nc1cc(-c2cnn(C3CN(S(=O)(=O)c4ccccc4)C3)c2)c2cc[nH]c2n1)C1CC1 [Example 604, N-(4-(1-(1-(phenylsulfonyl)azetidin-3-yl)-1H-pyrazol-4-yl)-1H-pyrrolo[2,3-b]pyridin-6-yl)cyclopropanecarboxamide] | 20 to 200 nM
O=C(Nc1cc(-c2cnn(C3CN(S(=O)(=O)c4ccc(F)c(F)c4)C3)c2)c2cc[nH]c2n1)C1CC1 [Example 605, N-(4-(1-(1-((3,4-difluorophenyl)sulfonyl)azetidin-3-yl)-1H-pyrazol-4-yl)-1H-pyrrolo[2,3-b]pyridin-6-yl)cyclopropanecarboxamide] | 20 to 200 nM
O=C(Nc1cc(-c2cnn(C3CN(S(=O)(=O)C4CCCCC4)C3)c2)c2cc[nH]c2n1)C1CC1 [Example 606, N-(4-(1-(1-(cyclohexylsulfonyl)azetidin-3-yl)-1H-pyrazol-4-yl)-1H-pyrrolo[2,3-b]pyridin-6-yl)cyclopropanecarboxamide] | > 200 nM
CS(=O)(=O)N1CCC(n2cc(-c3cc(NC(=O)C4CC4)nc4[nH]ccc34)cn2)CC1 [Example 607, N-(4-(1-(1-(methylsulfonyl)piperidin-4-yl)-1H-pyrazol-4-yl)-1H-pyrrolo[2,3-b]pyridin-6-yl)cyclopropanecarboxamide] | 20 to 200 nM
CCS(=O)(=O)N1CCC(n2cc(-c3cc(NC(=O)C4CC4)nc4[nH]ccc34)cn2)CC1 [Example 608, N-(4-(1-(1-(ethylsulfonyl)piperidin-4-yl)-1H-pyrazol-4-yl)-1H-pyrrolo[2,3-b]pyridin-6-yl)cyclopropanecarboxamide] | 20 to 200 nM
O=C(Nc1cc(-c2cnn(C3CCN(S(=O)(=O)C(F)(F)F)CC3)c2)c2cc[nH]c2n1)C1CC1 [Example 609, N-(4-(1-(1-((trifluoromethyl)sulfonyl)piperidin-4-yl)-1H-pyrazol-4-yl)-1H-pyrrolo[2,3-b]pyridin-6-yl)cyclopropanecarboxamide] | 20 to 200 nM
N#CCC(=O)N1CC(n2cc(-c3cc(NC(=O)C4CC4)nc4[nH]ccc34)cn2)C1 [Example 610, N-(4-(1-(1-(2-cyanoacetyl)azetidin-3-yl)-1H-pyrazol-4-yl)-1H-pyrrolo[2,3-b]pyridin-6-yl)cyclopropanecarboxamide] | 20 to 200 nM
N#CCN1CCC(n2cc(-c3cc(NC(=O)C4CC4)nc4[nH]ccc34)cn2)CC1 [Example 611, N-(4-(1-(1-(cyanomethyl)piperidin-4-yl)-1H-pyrazol-4-yl)-1H-pyrrolo[2,3-b]pyridin-6-yl)cyclopropanecarboxamide] | 20 to 200 nM
N#CCC1(N2CC=C(c3cc(NC(=O)C4CC4)nc4[nH]ccc34)CC2)COC1 [Example 612, N-(4-(1-(3-(cyanomethyl)oxetan-3-yl)-1,2,3,6-tetrahydropyridin-4-yl)-1H-pyrrolo[2,3-b]pyridine-6-yl) cyclopropanecarboxamide] | > 200 nM

Results, then the molecule that gave them:

IC50 | SMILES
20 to 200 nM | O=C(Nc1cc(-c2ccc(CNC(=O)N3CCS(=O)(=O)CC3)cc2)c2cc[nH]c2n1)C1CC1 [Example 580, N-(4-(6-(cyclopropanecarboxamido)-1H-pyrrolo[2,3-b]pyridin-4-yl)benzyl)thiomorpholine-4-carboxamide 1,1-dioxide]
20 to 200 nM | O=C(NCc1ccc(-c2cc(NC(=O)C3CC3)nc3[nH]ccc23)cc1)NCC(F)(F)F [Example 581, N-(4-(4-((3-(2,2,2-trifluoroethyl)ureido)methyl)phenyl)-1H-pyrrolo[2,3-b]pyridin-6-yl)cyclopropanecarboxamide]
< 20 nM | O=C(Nc1cc(-c2ccc(CNS(=O)(=O)c3ccc(F)c(F)c3)cc2)c2cc[nH]c2n1)C1CC1 [Example 582, N-(4-(4-(((3,4-difluorophenyl)sulfonamido)methyl)phenyl)-1H-pyrrolo[2,3-b]pyridin-6-yl)cyclopropanecarboxamide]
< 20 nM | O=C(Nc1cc(-c2ccc(CN3CCS(=O)(=O)CC3)cc2)c2cc[nH]c2n1)C1CC1 [Example 584, N-(4-(4-((1,1-dioxidothiomorpholino)methyl)phenyl)-1H-pyrrolo[2,3-b]pyridin-6-yl)cyclopropanecarboxamide]
< 20 nM | O=C1CCN(Cc2ccc(-c3cc(NC(=O)C4CC4)nc4[nH]ccc34)cc2)CC1 [Example 585, N-(4-(4-((4-oxopiperidin-1-yl)methyl)phenyl)-1H-pyrrolo[2,3-b]pyridin-6-yl)cyclopropanecarboxamide]
< 20 nM | CS(=O)(=O)N1CCN(Cc2ccc(-c3cc(NC(=O)C4CC4)nc4[nH]ccc34)cc2)CC1 [Example 587, N-(4-(4-((4-(methylsulfonyl)piperazin-1-yl)methyl)phenyl)-1H-pyrrolo[2,3-b]pyridin-6-yl)cyclopropanecarboxamide]
< 20 nM | CC1CC1C(=O)Nc1cc(-c2ccc(CN3CCS(=O)(=O)CC3)cc2)c2cc[nH]c2n1 (stereo not drawn) [Example 588, N-(4-(4-((1,1-dioxidothiomorpholino)methyl)phenyl)-1H-pyrrolo[2,3-b]pyridin-6-yl)-2-methylcyclopropane-1-carboxamide]
< 20 nM | CC(c1ccc(-c2cc(NC(=O)C3CC3)nc3[nH]ccc23)cc1)N1CCS(=O)(=O)CC1 (stereo not drawn) [Example 589, N-(4-(4-(1-(1,1-dioxidothiomorpholino)ethyl)phenyl)-1H-pyrrolo[2,3-b]pyridin-6-yl)cyclopropanecarboxamide]
< 20 nM | O=C(Nc1cc(-c2cc(F)c(CN3CCOCC3)c(F)c2)c2cc[nH]c2n1)C1CC1 [Example 590, N-(4-(3,5-difluoro-4-(morpholinomethyl)phenyl)-1H-pyrrolo[2,3-b]pyridin-6-yl)cyclopropanecarboxamide]
< 20 nM | O=C(Nc1cc(-c2cnn(C3CN(S(=O)(=O)C(F)(F)F)C3)c2)c2cc[nH]c2n1)C1CC1 [Example 599, N-(4-(1-(1-((trifluoromethyl)sulfonyl)azetidin-3-yl)-1H-pyrazol-4-yl)-1H-pyrrolo[2,3-b]pyridin-6-yl)cyclopropanecarboxamide]
